In patent US20260315499A1, “2'- {HETEROCYCLYL (ARYL/ALKYL) METHYL} - CANNABIDIOL COMPOUNDS AND PROCESS FOR PREPARATION THEREOF” (COUNCIL OF SCIENTIFIC & INDUSTRIAL RESEARCH, priority 2023, published 2026):
Values joined by “and” are separate entries in the source; they are usually repeats but may differ in a detail not shown here. Equal values may be shown once. Read-outs that look alike come from different tables or passages of the source.

Experiments:
[1] = Cell viability assay in macrophage RAW264.7 cells (MTT); format: cell-based; conditions: mouse, read-out: % cell viability ± SD
Protocol: RAW264.7 cells were seeded in 96-well cell culture plates at a density of 1×10^4 cells per well and incubated overnight at 37° C. with 5% CO2. Next day, the cells were treated with CBD or its derivatives at 5 μM and/or 10 μM concentration for 24 hrs. The MTT dye (2.5 mg/ml, 20 μL) was added to each well 4 hrs before termination (Molecules. 2022, 27, 8068). After 4 hrs of incubation with MTT, the supernatant was discarded, and the formazan crystals were dissolved by adding 100 μL DMSO. The absorbance was recorded at 540 nm on microplate reader (Tecan Infinite Pro).

TrkB stable cells SHSY5Y = assay: Cytoprotective effect in TrkB stable cells SHSY5Y, 96 hrs; format: cell-based, human; conditions: 96 hrs; for viability at 20 µM: Homo sapiens, SH-SY5Y, 96 h, read-out: % Cell viability ± SD
Protocol: In another experiment, the cytoprotective effect of A1 as well as parent molecule B1 was determined in TrkB stable cells SHSY5Y.

Anti BDNF [2] = assay: Survival pathway protein expression by western blotting in SHSY5Y; format: cell-based, human
Protocol: (§1) Here, A1 was tested to find its role in eliciting survival pathway proteins in differentiated human neuroblastoma cells in concentration and time dependent manner.
(§2) To investigate the effect of A1 on the survival proteins, SHSY5Y cell cultures were treated with different concentrations for 6 hrs and analyzed for the expression of survival proteins, including p-Erk 44/42, p-AKT 473, Anti BDNF, and p TrkB 816 and p TrKB 515 by western blotting.

p TrkB 515 = assay: as above; format: cell-based, human
Protocol: as §1, §2

p TrkB 816 [3] = assay: as above; format: cell-based, human
Protocol: as §1, §2

p-Erk 44/42 = assay: as above; format: cell-based, human; conditions: for Relative Protein Expression p ERK 44/42: 6 hrs
Protocol: as §1, §2

[4] = tested on: nitric oxide (NO) production in RAW264.7 macrophages; assay: In vitro anti-inflammatory activity: nitric oxide production (Griess) in LPS-exposed RAW264.7 macrophages; format: cell-based, mouse; conditions: Mus musculus, RAW264.7, LPS 24 hrs, read-out: % NO Inhibition ± SD
Protocol: Measurement of Nitric oxide: RAW264.7 macrophages were seeded in 96-well plates with a density of 0.5×10^5 cells/well and incubated overnight at 37° C. in a 5% CO2 atmosphere. The cells were treated with different concentration of CBD and its analogues and exposed to LPS for 24 hrs. For nitric oxide (NO) determination, the cell culture supernatant was taken and mixed with equal volume of Griess reagent in another 96 well plate at room temperature (Biomed Pharmacother., 2017, 92, 175-186). The absorbance was measured at 540 nm. The final calculations were determined on a NaNO2 standard curve.

[5] = In vivo corticosterone induced depression model: effect on body weight; parameters: species or system mouse (male C57); conditions: 21 days; for Weight (g) ± SD: A1 20 mg/kg oral, fluoxetine 18 mg/kg
Protocol: (§3) In vivo efficacy (ameliorates behavioral despair) of A1 in corticosterone induced model of stress (J. Neurochem., 2018 146, 722 734). […] A1 (20 mg/kg, oral) dissolved in normal saline was given for 3 consecutive weeks following corticosteroid stress. The sucrose preference test was employed, tail suspension test, and forced swim test to evaluate behavioral distress. We noticed that A1 can resurrect mice in stressful situations. […]

depression mice model [6] = assay: In vivo corticosterone induced depression model: sucrose preference test; parameters: species or system mouse (male C57); conditions: for % Sucrose consumption (ml) ± SD: 2% sucrose, 21 days
Protocol: as §3
Sucrose consumption was employed to evaluate anhedonia, a core hallmark of depression in mice. The animals were allowed unfettered access to both identical bottles, one containing water while the other contained a 2% solution of sucrose, for 21 days.
The below equation was later employed to determine water and sugar consumed by mice:
Sucrose Preference=Sucrose consumed[…]/Total fluid intake.

depression mice model [7] = assay: In vivo corticosterone induced depression model: Tail Suspension Test (TST); parameters: species or system mouse (male C57); conditions: A1 20 mg/kg, fluoxetine 18 mg/kg
Protocol: A1 (20 mg/kg, oral) dissolved in normal saline was given for 3 consecutive weeks following corticosteroid stress. The sucrose preference test was employed, tail suspension test, and forced swim test to evaluate behavioral distress.
Tail Suspension Test (TST) is a behavioral test employed to assess perturbations expected to influence depression like phenotypes. TST is grounded on the reflection that the extent of immobility is allied with depressing phenotype of mice overturned by antidepressants. Mice were positioned 2 cm from their tail tips and 5 cm above the ground suspending the tails using adhesive tape for the free movement (Acta Neuropathol Commun., 2016, 4(1), 108).
The contemporary immobility was alluded to as interruption in motion, where a blind assessor evaluates the disappointed aspect of display before scoring it.

Anti BDNF [8] = assay: Survival pathway protein expression by western blotting in SHSY5Y; format: cell-based, human; conditions: for Relative Protein Expression Anti BDNF: A1 + Cort.
p TrkB 816 [9] = assay: as above; format: cell-based, human; conditions: for Relative Protein Expression p TrkB 816: A1 + Cort.
[10] = different concentrations of A1, 6 hrs
[11] = A1 for multiple time spans, corticosterone

In the case of `C=C(C)[C@@H]1CCC(C)=C[C@H]1c1c(O)cc(CCCCC)c(CN2CCOCC2)c1O` [A1, 2′-(morpholin-1-ylmethyl)-cannabidiol], the viability at 24 h, 5 µM ([1]; RAW264.7, 5 μM) is reported as 93.1 ± 1.1%, the viability at 24 h, 10 µM ([1]; RAW264.7, 10 μM) is reported as 83.5 ± 0.6% and the “cell viability versus control (in words)” value (TrkB stable cells SHSY5Y) is reported as “increased cell viability versus control”. For the same molecule, the viability at 20 µM (TrkB stable cells SHSY5Y; test compound 20 μM + Cort. 400 μM) was 97.2 ± 1.13%, the viability at 20 µM (TrkB stable cells SHSY5Y; test compound alone, 20 μM) was 110 ± 1.61% and the “Relative Protein Expression Anti BDNF” value (Anti BDNF [2]; A1 5 μM, 6 hrs) was 0.67. For the same molecule, the “Relative Protein Expression Anti BDNF” value (Anti BDNF [2]; A1 10 μM, 6 hrs) was 1.48, the “Relative Protein Expression Anti BDNF” value (Anti BDNF [2]; A1 + Cort., 6 hr) was 39.43 and the “Relative Protein Expression Anti BDNF” value (Anti BDNF [2]; A1/Cort., A1 5 μM, 6 hrs) was 0.44. For the same molecule, the “Relative Protein Expression Anti BDNF” value (Anti BDNF [2]; A1/Cort., A1 10 μM, 6 hrs) was 1.34, the “expression of Anti BDNF (in words)” value (Anti BDNF [2]; [10]) was “increased significantly” and the “Relative Protein Expression p TrkB 515” value (p TrkB 515; A1 10 μM, 6 hrs) was 1.75. The “Relative Protein Expression p TrkB 515” value (p TrkB 515; A1 + Cort., 6 hr) was 6.675, the “Relative Protein Expression p TrkB 515” value (p TrkB 515; A1/Cort., A1 5 μM, 6 hrs) was 0.07 and the “Relative Protein Expression p TrkB 515” value (p TrkB 515; A1/Cort., A1 10 μM, 6 hrs) was 1.30. For the same molecule, the “expression of p TrkB 515 (in words)” value (p TrkB 515; [10]) was “increased significantly except for the expression of p-AKT 473 and p TrkB 515”, the “Relative Protein Expression p TrkB 816” value (p TrkB 816 [3]; A1 5 μM, 6 hrs) was 3.11 and the “Relative Protein Expression p TrkB 816” value (p TrkB 816 [3]; A1 10 μM, 6 hrs) was 2.91. For the same molecule, the “Relative Protein Expression p TrkB 816” value (p TrkB 816 [3]; A1 + Cort., 6 hr) was 23.0422, the “Relative Protein Expression p TrkB 816” value (p TrkB 816 [3]; A1/Cort., A1 5 μM, 6 hrs) was 1.41 and the “Relative Protein Expression p TrkB 816” value (p TrkB 816 [3]; A1/Cort., A1 10 μM, 6 hrs) was 2.89. For the same molecule, the “expression of p TrkB 816 (in words)” value (p TrkB 816 [3]; [10]) was “increased significantly”, the “Relative Protein Expression p ERK 44/42” value (p-Erk 44/42; A1 5 μM) was 4.51 and the “Relative Protein Expression p ERK 44/42” value (p-Erk 44/42; A1 10 μM) was 8.80. The “Relative Protein Expression p ERK 44/42” value (p-Erk 44/42; A1/Cort., A1 5 μM) was 3.70, the “Relative Protein Expression p ERK 44/42” value (p-Erk 44/42; A1/Cort., A1 10 μM) was 5.05 and the “expression of p-Erk 44/42 (in words)” value (p-Erk 44/42; [10]) was “increased significantly”. For the same molecule, the inhibition at 5 µM ([4]; 5 μM) was 7.1 ± 0.8%, the inhibition at 10 µM ([4]; 10 μM) was 12.3% and the “toxicity / weight fluctuations (in words)” value ([5]; 20 mg/kg oral) was “no discernible toxicity”. For the same molecule, the “Weight (g) ± SD” value ([5]; with Cort. 35 μg/ml) was 36.75 ± 3.88 g, the “Weight (g) ± SD” value ([5]; without Cort.) was 42.88 ± 2.69 g and the “increase of sucrose consumption” value (depression mice model [6]; compared with stressed mice) was “more than 50%”. The “% Sucrose consumption (ml) ± SD” value (depression mice model [6]; with Cort.) was 78.02±0.99%, the “% Sucrose consumption (ml) ± SD” value (depression mice model [6]; without Cort.) was 83.80±0.80% and the “% Immobility (sec) ± SD (dead time)” value (depression mice model [7]; with Cort. 35 μg/ml) was 33.05 ± 5.62 s. For the same molecule, the “% Latency to immobility (sec) ± SD” value (depression mice model [7]; with Cort. 35 μg/ml) was 36.90 ± 14.54 s, the “% Immobility (sec) ± SD (dead time)” value (depression mice model [7]; without Cort.) was 28.76 ± 9.01 s and 28.76 ± 9.10 s and the “% Latency to immobility (sec) ± SD” value (depression mice model [7]; without Cort.) was 54.35 ± 9.74 s. The “Relative Protein Expression Anti BDNF” value (Anti BDNF [8]; 0 hr) was 1.029, the “Relative Protein Expression Anti BDNF” value (Anti BDNF [8]; 0.5 hr) was 14.02 and the “Relative Protein Expression Anti BDNF” value (Anti BDNF [8]; 1 hr) was 28.11. The “Relative Protein Expression Anti BDNF” value (Anti BDNF [8]; 2 hr) was 51.76, the “Relative Protein Expression Anti BDNF” value (Anti BDNF [8]; 4 hr) was 41.62 and the “expression of Anti BDNF (in words)” value (Anti BDNF [8]; [11]) was “remarkably increased”. For the same molecule, the “Relative Protein Expression p TrkB 816” value (p TrkB 816 [9]; 0 hr) was 1.012, the “Relative Protein Expression p TrkB 816” value (p TrkB 816 [9]; 0.5 hr) was 1.309 and the “Relative Protein Expression p TrkB 816” value (p TrkB 816 [9]; 1 hr) was 10.54. For the same molecule, the “Relative Protein Expression p TrkB 816” value (p TrkB 816 [9]; 2 hr) was 16.76, the “Relative Protein Expression p TrkB 816” value (p TrkB 816 [9]; 4 hr) was 23.54 and the “expression of p TrkB 816 (in words)” value (p TrkB 816 [9]; [11]) was “remarkably increased”.
